Experimental data reported in ChEMBL document CHEMBL2057096, “Discovery of novel 1,2,4-thiadiazole derivatives as potent, orally active agonists of sphingosine 1-phosphate receptor subtype 1 (S1P(1))” (J Med Chem, 2012).
Converted amounts (≈) assume the structure as drawn. The source made the active and inactive calls. The rule behind the calls is not given here.

What was measured:
[1] = organism: Homo sapiens; assay: Selectivity ratio of EC50 for S1P3 receptor to EC50 for S1P1 receptor
[2] = biological target: Sphingosine 1-phosphate receptor 3 (Homo sapiens, UniProt Q99500); assay: Agonist activity against S1P3 receptor by cell based FRET assay; assay type: functional
Sphingosine 1-phosphate receptor 3, sequence (Q99500 whole entry): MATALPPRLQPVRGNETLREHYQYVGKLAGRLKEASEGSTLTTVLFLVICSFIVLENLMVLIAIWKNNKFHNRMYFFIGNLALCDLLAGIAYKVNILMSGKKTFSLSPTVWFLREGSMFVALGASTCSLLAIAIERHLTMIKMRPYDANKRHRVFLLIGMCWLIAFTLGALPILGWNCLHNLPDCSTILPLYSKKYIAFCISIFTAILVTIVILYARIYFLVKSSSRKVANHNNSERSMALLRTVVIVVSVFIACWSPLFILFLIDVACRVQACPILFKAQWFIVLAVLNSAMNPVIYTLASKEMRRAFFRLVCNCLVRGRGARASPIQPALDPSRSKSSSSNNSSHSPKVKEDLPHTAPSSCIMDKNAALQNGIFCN

[3] = Percentage unbound in human plasma; assay type: ADME, cell-free
[4] = biological target: Sphingosine 1-phosphate receptor 1 (Homo sapiens, UniProt P21453); assay: Agonist activity against S1P1 receptor by cell based FRET assay; assay type: functional
Sphingosine 1-phosphate receptor 1, sequence (P21453 whole entry): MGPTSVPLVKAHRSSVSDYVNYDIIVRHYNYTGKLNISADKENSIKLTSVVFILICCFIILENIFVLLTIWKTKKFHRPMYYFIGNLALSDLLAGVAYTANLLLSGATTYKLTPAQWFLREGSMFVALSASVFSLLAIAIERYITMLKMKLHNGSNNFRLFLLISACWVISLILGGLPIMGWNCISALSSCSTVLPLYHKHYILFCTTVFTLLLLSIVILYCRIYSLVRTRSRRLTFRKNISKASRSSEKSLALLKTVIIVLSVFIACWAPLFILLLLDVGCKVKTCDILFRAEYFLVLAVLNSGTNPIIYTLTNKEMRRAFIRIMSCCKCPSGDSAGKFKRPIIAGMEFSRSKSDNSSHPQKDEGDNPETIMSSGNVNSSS

[5] = Percentage unbound in rat plasma; assay type: ADME, cell-free
[6] = Permeability of the compound; assay type: ADME; settings: not told; read-out: permeability
[7] = Ratio of drug level in brain to blood in C57BL/6 mouse at 2 mg/kg, ip after 1 hr; assay type: ADME, organism-based; parameters: dose 2 mg/kg, route intraperitoneal
[8] = Ratio of drug level in brain to blood in C57BL/6 mouse at 2 mg/kg, ip after 4 hrs; assay type: ADME, organism-based; parameters: dose 2 mg/kg, route intraperitoneal
[9] = Solubility of the compound; assay type: physicochemical
[10] = biological target: Cytochrome P450 2C9 (Homo sapiens, UniProt P11712); assay: Inhibition of CYP2C9; assay type: ADME
Cytochrome P450 2C9, sequence (P11712 whole entry): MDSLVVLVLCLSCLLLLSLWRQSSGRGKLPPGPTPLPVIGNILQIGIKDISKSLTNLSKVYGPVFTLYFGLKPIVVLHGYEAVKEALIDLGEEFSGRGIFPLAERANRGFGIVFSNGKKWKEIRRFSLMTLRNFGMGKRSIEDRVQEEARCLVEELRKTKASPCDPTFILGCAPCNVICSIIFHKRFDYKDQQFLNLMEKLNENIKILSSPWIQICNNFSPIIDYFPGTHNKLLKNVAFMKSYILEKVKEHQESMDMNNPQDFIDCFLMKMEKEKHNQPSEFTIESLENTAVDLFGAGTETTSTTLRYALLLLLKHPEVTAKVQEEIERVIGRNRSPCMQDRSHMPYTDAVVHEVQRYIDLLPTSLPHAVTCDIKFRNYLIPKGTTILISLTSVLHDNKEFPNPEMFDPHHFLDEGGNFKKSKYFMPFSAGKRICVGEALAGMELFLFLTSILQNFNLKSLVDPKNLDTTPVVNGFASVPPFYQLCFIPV

[11] = tested on: Mus musculus; assay: Antiinflammatory activity in C57BL/6 mouse EAE model assessed as decrease in clinical symptoms at 1 mg/kg, po administered qd after 10 days post immunization; assay type: functional, organism-based; parameters: dose 1 mg/kg

Compound	EC50 [2]	fraction unbound [3]	EC50 [4]	other results
CCc1c(CCN2CC(C(=O)O)C2)cccc1-c1nsc(-c2ccc(OC(C)C)c(C(F)(F)F)c2)n1	3.16 µM	0.0025	0.251 nM	Ratio EC50 [1]: > 1000
CCc1c(CCN2CCCCC2)cccc1-c1nsc(-c2ccc(CC(C)C)c(C#N)c2)n1	> 10 µM	0.00017	1580 nM	
CCc1c(CCCC(=O)O)cccc1-c1nsc(-c2ccc(OC(C)C)c(C(F)(F)F)c2)n1		0.00014	2 nM	
CCc1c(CCCC(=O)O)cccc1-c1nnc(-c2ccc(OC(C)C)c(C#N)c2)o1	> 10 µM		3.16 nM	fraction unbound [5]: 0.0021; Papp [6]: 24 ×10⁻⁶ cm/s; Kp at 1 h [7]: 0.11; Kp at 4 h [8]: 0.09; solubility [9]: 187 µg/mL (≈ 446 µM); IC50 [10]: 7.94 µM
CCc1c(CCCC(=O)O)cccc1-c1ccc(-c2ccc(OC(C)C)c(C#N)c2)cc1	> 10 µM		1.58 nM	fraction unbound [5]: 0.0001; Papp [6]: 31 ×10⁻⁶ cm/s; Kp at 1 h [7]: 0.93; Kp at 4 h [8]: 0.95; solubility [9]: 154 µg/mL (≈ 360 µM); IC50 [10]: 3.98 µM
CCc1c(CCCC(=O)O)cccc1-c1ccc(-c2ccc(OC(C)C)c(C#N)c2)cn1			31.6 nM	
CCc1c(CCCC(=O)O)cccc1-c1ccc(-c2ccc(OC(C)C)c(C#N)c2)s1	> 10 µM		3.98 nM	fraction unbound [5]: 0.0002; Papp [6]: 30 ×10⁻⁶ cm/s; Kp at 1 h [7]: 1; Kp at 4 h [8]: 1.5; solubility [9]: 115 µg/mL (≈ 265 µM); IC50 [10]: 1.58 µM
CCc1c(CCCC(=O)O)cccc1-c1nc(-c2ccc(OC(C)C)c(C#N)c2)ns1			1.26 nM	
CCc1c(CCCC(=O)O)cccc1-c1nccc(-c2ccc(OC(C)C)c(C#N)c2)n1			> 3160 nM	
CCc1c(CCN2CC(C(=O)O)C2)cccc1-c1nsc(-c2ccc(CC(C)C)c(C#N)c2)n1	2.51 µM	0.0071	0.794 nM	Ratio EC50 [1]: > 1000
CCc1c(CN2CCC(C(=O)O)CC2)cccc1-c1nsc(-c2ccc(OC(C)C)c(C(F)(F)F)c2)n1	> 10 µM		15.8 nM	fraction unbound [5]: 0.0038; Ratio EC50 [1]: > 1000
CCc1c(CCNCC(=O)O)cccc1-c1nsc(-c2ccc(OC(C)C)c(C(F)(F)F)c2)n1	> 3.16 µM	0.0013	0.0158 nM	Ratio EC50 [1]: > 1000
CCc1c(CCCC(=O)O)cccc1-c1nsc(-c2cnc(OC(C)C)c(C(F)(F)F)c2)n1		0.00031	5.01 nM	
CCc1c(CN(C)CC(=O)O)cccc1-c1nsc(-c2ccc(OC(C)C)c(C(F)(F)F)c2)n1	> 10 µM	0.0049	10 nM	Ratio EC50 [1]: > 1000
CCc1c(CCN2CCC(C(=O)O)CC2)cccc1-c1nsc(-c2ccc(OC(C)C)c(C(F)(F)F)c2)n1	2.51 µM	0.0017	0.1 nM	Ratio EC50 [1]: > 1000
CCc1c(CCCC(=O)O)cccc1-c1ccnc(-c2ccc(OC(C)C)c(C#N)c2)n1			> 3160 nM	
CCc1c(CCCC(=O)O)cncc1-c1nsc(-c2ccc(CC(C)C)c(C#N)c2)n1		0.0014	398 nM	
CCc1c(CCCC(=O)O)cccc1-c1ncc(-c2ccc(OC(C)C)c(C#N)c2)cn1			25.1 nM	
CCc1c(CCCC(=O)O)cccc1-c1cnc(-c2ccc(OC(C)C)c(C#N)c2)[nH]1			> 10000 nM	
CCc1c(CCN(C)CC(=O)O)cccc1-c1nsc(-c2ccc(OC(C)C)c(C(F)(F)F)c2)n1	> 3.16 µM	0.0021	0.02 nM	Ratio EC50 [1]: > 1000
CCc1c(CCN2CC(C(=O)O)C2)cccc1-c1nsc(-c2ccc(OC(C)C)c(Cl)c2)n1	> 3.16 µM	0.0067	0.251 nM	Ratio EC50 [1]: > 1000
CCc1c(CCCC(=O)O)cccc1-c1cccc(-c2ccc(OC(C)C)c(C#N)c2)n1			> 3160 nM	

Compound	EC50 [2]	fraction unbound [3]	EC50 [4]	other results
CCc1c(CCCC(=O)O)cccc1-c1nsc(-c2ccc(-c3ccccc3)c(C(F)(F)F)c2)n1			5.01 nM	
CCc1c(CCCC(=O)O)cncc1-c1nsc(-c2ccc(OC(C)C)c(C(F)(F)F)c2)n1		0.0012	25.1 nM	
CCc1c(CCCC(=O)O)cccc1-c1nsc(-c2ccc(N3CCCCC3)c(C(F)(F)F)c2)n1		1e-05	2 nM	
CCc1c(CCCC(=O)O)cccc1-c1nsc(-c2ccc(N3CCN(C)CC3)c(C(F)(F)F)c2)n1			> 3160 nM	fraction unbound [5]: 0.0032
CCc1c(CCCC(=O)O)cccc1-c1cnn(-c2ccc(OC(C)C)c(C#N)c2)c1			631 nM	
CCc1c(CCN2CC(O)C2)cccc1-c1nsc(-c2ccc(CC(C)C)c(C#N)c2)n1	> 3.16 µM	0.00091	200 nM	
CCc1c(CCCC(=O)O)cccc1-c1ccc(-c2ccc(OC(C)C)c(C#N)c2)nn1			631 nM	
CCc1c(CCCC(=O)O)cccc1-c1ccn(-c2ccc(OC(C)C)c(C#N)c2)n1			2510 nM	
CCc1c(CCCC(=O)O)cccc1-c1cc(-c2ccc(OC(C)C)c(C#N)c2)no1			5.01 nM	
CCc1c(CCCC(=O)O)cccc1-c1nsc(-c2ccc(CC(C)C)c(C#N)c2)n1		0.0003	1.26 nM	
CCc1c(CCCC(=O)O)cncc1-c1nsc(-c2ccc(OC(C)C)c(Cl)c2)n1		0.0019	251 nM	
CCc1c(CCCC(=O)O)cccc1-c1nsc(-c2ccc(OC(C)C)c(Cl)c2)n1		0.0015	3.98 nM	
CCc1c(CCCC(=O)O)cccc1-c1nsc(-c2ccc(N3CCOCC3)c(C(F)(F)F)c2)n1			126 nM	fraction unbound [5]: 0.0006
CCc1c(CN2CC(C(=O)O)C2)cccc1-c1nsc(-c2ccc(OC(C)C)c(Cl)c2)n1	> 3.16 µM	0.0096	3.98 nM	Ratio EC50 [1]: > 1000
CCc1c(CN(C)C(C)(C)C(=O)O)cccc1-c1nsc(-c2ccc(OC(C)C)c(C(F)(F)F)c2)n1	> 10 µM	4e-05	100 nM	Ratio EC50 [1]: > 1000
CCc1c(CCCC(=O)O)cccc1-c1ccc(-c2ccc(OC(C)C)c(C#N)c2)nc1			31.6 nM	
CCc1c(-c2nsc(-c3ccc(CC(C)C)c(C#N)c3)n2)ccnc1CCCC(=O)O		0.0019	158 nM	
CCc1c(CCCC(=O)O)cccc1-c1cc(-c2ccc(OC(C)C)c(C#N)c2)ncn1			> 3160 nM	
CCc1c(CN2CC(C(=O)O)C2)cccc1-c1nsc(-c2ccc(OC(C)C)c(C(F)(F)F)c2)n1	2.51 µM	0.0026	0.251 nM	Ratio EC50 [1]: > 1000
CCc1c(CN2CC(C(=O)O)C2)cccc1-c1nsc(-c2ccc(CC(C)C)c(C#N)c2)n1	> 3.16 µM	0.0128	7.94 nM	Ratio EC50 [1]: > 1000
CCc1c(CCCC(=O)O)cccc1-c1cc(-c2ccc(OC(C)C)c(C#N)c2)n[nH]1			> 10000 nM	
CCCCCCCCc1ccc(CCC(N)(CO)CO)cc1				Activity [11]: Active
